Species on record: Rattus norvegicus
Test: Open TG-GATES - Regimen: Single
Type: toxicity, organism-based, Sprague-Dawley
Design: regimen Single, gender Male, age 6 weeks
Conditions: in vivo, po, route gavage; for Eos / Fbg / Hb / Ht / Lym / MCH / MCHC / MCV / Mono / Neu / PT / Plat / RBC / Ret / WBC / APTT / Bas: tissue Blood; for KIDNEY_L / KIDNEY_R / KIDNEY_TOTAL: tissue Kidney; for LIVER: tissue Liver; for A/G / ALP / ALT / AST / BUN / CRE / Ca / Cl / DBIL / GLC / IP / K / LDH / Na / PL / RALB / TBIL / TC / TG / TP / gamma-GTP: tissue Plasma
[1] = 30 mg/kg, 3 h, dose level Middle
[2] = 30 mg/kg, 6 h, dose level Middle
[3] = 30 mg/kg, 9 h, dose level Middle

`O=C1CN(/N=C/c2ccc([N+](=O)[O-])o2)C(=O)N1` [NITROFURANTOIN] showed an Eos (10 mg/kg, 24 h, dose level Low) of 1%, a Fbg (10 mg/kg, 24 h, dose level Low) of 212.8 mg/dL and a Hb (10 mg/kg, 24 h, dose level Low) of 13.1 g/dL. The Ht (10 mg/kg, 24 h, dose level Low) was 37.6%, the Lym (10 mg/kg, 24 h, dose level Low) was 80.2% and the MCH (10 mg/kg, 24 h, dose level Low) was 21.9 pg. For the same compound, the MCHC (10 mg/kg, 24 h, dose level Low) was 34.9%, the MCV (10 mg/kg, 24 h, dose level Low) was 62.7 fL and the Mono (10 mg/kg, 24 h, dose level Low) was 2.2%. It also gave a Neu (10 mg/kg, 24 h, dose level Low) of 15.4%, a PT (10 mg/kg, 24 h, dose level Low) of 12.6 s and a Plat (10 mg/kg, 24 h, dose level Low) of 126.9 x10_4/uL. For the same compound, the RBC (10 mg/kg, 24 h, dose level Low) was 599.6 x10_4/ul, the Ret (10 mg/kg, 24 h, dose level Low) was 7% and the WBC (10 mg/kg, 24 h, dose level Low) was 79.2 x10_2/uL. The KIDNEY_L (10 mg/kg, 24 h, dose level Low) was 1.1 g, the KIDNEY_R (10 mg/kg, 24 h, dose level Low) was 1.1 g and the KIDNEY_TOTAL (10 mg/kg, 24 h, dose level Low) was 2.1 g. The LIVER (10 mg/kg, 24 h, dose level Low) was 11.3 g, the A/G (10 mg/kg, 24 h, dose level Low) was 1.6 and the ALP (10 mg/kg, 24 h, dose level Low) was 999.6 IU/L. It also gave an ALT (10 mg/kg, 24 h, dose level Low) of 38.4 IU/L, an AST (10 mg/kg, 24 h, dose level Low) of 63.4 IU/L and a BUN (10 mg/kg, 24 h, dose level Low) of 16.8 mg/dL. The CRE (10 mg/kg, 24 h, dose level Low) was 0.4 mg/dL, the Ca (10 mg/kg, 24 h, dose level Low) was 10.9 mg/dL and the Cl (10 mg/kg, 24 h, dose level Low) was 101.8 meq/L. For the same compound, the DBIL (10 mg/kg, 24 h, dose level Low) was 0.1 mg/dL, the GLC (10 mg/kg, 24 h, dose level Low) was 211.6 mg/dL and the IP (10 mg/kg, 24 h, dose level Low) was 7.1 mg/dL. It also gave a K (10 mg/kg, 24 h, dose level Low) of 4.3 meq/L, an LDH (10 mg/kg, 24 h, dose level Low) of 168.2 IU/L and a Na (10 mg/kg, 24 h, dose level Low) of 139.4 meq/L. For the same compound, the PL (10 mg/kg, 24 h, dose level Low) was 151.6 mg/dL, the RALB (10 mg/kg, 24 h, dose level Low) was 3.3 g/dL and the TBIL (10 mg/kg, 24 h, dose level Low) was 0.2 mg/dL. The TC (10 mg/kg, 24 h, dose level Low) was 78.8 mg/dL, the TG (10 mg/kg, 24 h, dose level Low) was 105.8 mg/dL and the TP (10 mg/kg, 24 h, dose level Low) was 5.4 g/dL. The gamma-GTP (10 mg/kg, 24 h, dose level Low) was 0.8 IU/L, the TERMINAL_BW [1] was 218.7 g and the APTT [1] was 18.8 s. The Bas [1] was 0%, the Eos [1] was 1.2% and the Fbg [1] was 219.2 mg/dL. The Hb [1] was 13.8 g/dL, the Ht [1] was 39.3% and the Lym [1] was 79%. For the same compound, the MCH [1] was 21.6 pg, the MCHC [1] was 35.2% and the MCV [1] was 61.4 fL. For the same compound, the Mono [1] was 2%, the Neu [1] was 16.8% and the PT [1] was 12.6 s. The Plat [1] was 113.7 x10_4/uL, the RBC [1] was 642 x10_4/ul and the Ret [1] was 7.5%. For the same compound, the WBC [1] was 82.7 x10_2/uL, the KIDNEY_L [1] was 1 g and the KIDNEY_R [1] was 1 g. The KIDNEY_TOTAL [1] was 2 g, the LIVER [1] was 10.8 g and the A/G [1] was 1.5. The ALP [1] was 1203 IU/L, the ALT [1] was 37.6 IU/L and the AST [1] was 66.6 IU/L. It also gave a BUN [1] of 12.8 mg/dL, a CRE [1] of 0.4 mg/dL and a Ca [1] of 10.6 mg/dL. It also gave a Cl [1] of 101.4 meq/L, a DBIL [1] of 0.074 mg/dL and a GLC [1] of 194.6 mg/dL. For the same compound, the IP [1] was 9 mg/dL, the K [1] was 4 meq/L and the LDH [1] was 180 IU/L. It also gave a Na [1] of 140.6 meq/L, a PL [1] of 136 mg/dL and an RALB [1] of 3.3 g/dL. For the same compound, the TBIL [1] was 0.1 mg/dL, the TC [1] was 74.6 mg/dL and the TG [1] was 62.2 mg/dL. It also gave a TP [1] of 5.5 g/dL, a gamma-GTP [1] of 0.8 IU/L and a TERMINAL_BW [2] of 219.6 g. For the same compound, the APTT [2] was 19 s, the Bas [2] was 0% and the Eos [2] was 1%. It also gave a Fbg [2] of 219 mg/dL, a Hb [2] of 13.3 g/dL and a Ht [2] of 37.6%. For the same compound, the Lym [2] was 75%, the MCH [2] was 21.5 pg and the MCHC [2] was 35.3%. For the same compound, the MCV [2] was 61 fL, the Mono [2] was 2.6% and the Neu [2] was 20%. The PT [2] was 12.7 s, the Plat [2] was 115.2 x10_4/uL and the RBC [2] was 616.2 x10_4/ul. It also gave a Ret [2] of 7.6%, a WBC [2] of 82.3 x10_2/uL and a KIDNEY_L [2] of 1 g. For the same compound, the KIDNEY_R [2] was 1 g, the KIDNEY_TOTAL [2] was 2 g and the LIVER [2] was 9.8 g. For the same compound, the A/G [2] was 1.6, the ALP [2] was 861.8 IU/L and the ALT [2] was 31 IU/L. For the same compound, the AST [2] was 58.8 IU/L, the BUN [2] was 11 mg/dL and the CRE [2] was 0.4 mg/dL. It also gave a Ca [2] of 10.6 mg/dL, a Cl [2] of 103.2 meq/L and a DBIL [2] of 0.072 mg/dL. For the same compound, the GLC [2] was 191 mg/dL, the IP [2] was 9.2 mg/dL and the K [2] was 4.1 meq/L. It also gave an LDH [2] of 168.6 IU/L, a Na [2] of 140.8 meq/L and a PL [2] of 132 mg/dL. It also gave an RALB [2] of 3.3 g/dL, a TBIL [2] of 0.1 mg/dL and a TC [2] of 73.4 mg/dL. For the same compound, the TG [2] was 64 mg/dL, the TP [2] was 5.4 g/dL and the gamma-GTP [2] was 0.8 IU/L. The TERMINAL_BW [3] was 216.9 g, the APTT [3] was 18.6 s and the Bas [3] was 0%. For the same compound, the Eos [3] was 0.8%, the Fbg [3] was 213.4 mg/dL and the Hb [3] was 13.3 g/dL. It also gave a Ht [3] of 38%, a Lym [3] of 79.6% and an MCH [3] of 21.9 pg. It also gave an MCHC [3] of 35.1%, an MCV [3] of 62.3 fL and a Mono [3] of 3.2%. For the same compound, the Neu [3] was 14.8%, the PT [3] was 12.9 s and the Plat [3] was 107.6 x10_4/uL. The RBC [3] was 609.8 x10_4/ul, the Ret [3] was 7.5% and the WBC [3] was 96.9 x10_2/uL. The KIDNEY_L [3] was 1 g, the KIDNEY_R [3] was 1 g and the KIDNEY_TOTAL [3] was 2 g. It also gave an LIVER [3] of 9.5 g.

From ChEMBL document CHEMBL3885861, “Open TG-GATES”
